Results from US20240382629A1, “HETEROBIVALENT AND HOMOBIVALENT AGENTS TARGETING FIBROBLAST ACTIVATION PROTEIN ALPHA AND/OR PROSTATE-SPECIFIC MEMBRANE ANTIGEN” (The Johns Hopkins University, priority 2021, published 2024).
Values joined by “and” are separate entries in the source; they are usually repeats but may differ in a detail not shown here. Equal entries are not always repeated.

Experiment: Biodistribution of representative compounds ([^18F]Sri-07-56, [^18F]Sri-07-52, [^18F]JHU1221823, [^18F]FAPI-74), tissue % ID/g with carrier or blocker
Type: in vivo, mouse
Conditions: for Bladder % ID/g / Blood % ID/g / Brain % ID/g / Fat % ID/g / Femur % ID/g / Heart % ID/g / Kidney % ID/g / Large intestine % ID/g / Liver % ID/g / Lung % ID/g / Muscle % ID/g / Pancreas % ID/g / Salivery gland % ID/g / Small intestine % ID/g / Spleen % ID/g / Stomach % ID/g / Tumor % ID/g: individual mice
Excerpt: Biodistribution of Representative Compounds

N#CC1CCCN1C(=O)CNC(=O)c1ccnc2ccc(OCCCNC(=O)CCc3cn(CCC(NC(=O)c4ccc([18F])nc4)C(=O)NCCCCC(NC(=O)NC(CC(=O)O)C(=O)O)C(=O)O)nn3)cc12 (stereo not drawn) [[18F]Sri-07-52]
Bladder % ID/g Mean (60 min, 20 μCi per mouse): 1.75 % ID/g
Blood % ID/g Mean (60 min, 20 μCi per mouse): 2.39 % ID/g
Brain % ID/g Mean (60 min, 20 μCi per mouse): 0.09 % ID/g
Fat % ID/g Mean (60 min, 20 μCi per mouse): 0.41 % ID/g
Femur % ID/g Mean (60 min, 20 μCi per mouse): 2.10 % ID/g
Heart % ID/g Mean (60 min, 20 μCi per mouse): 1.39 % ID/g
Kidney % ID/g Mean (60 min, 20 μCi per mouse): 1.21 % ID/g
Large intestine % ID/g Mean (60 min, 20 μCi per mouse): 1.16 % ID/g
Liver % ID/g Mean (60 min, 20 μCi per mouse): 1.07 % ID/g
Lung % ID/g Mean (60 min, 20 μCi per mouse): 1.46 % ID/g
Muscle % ID/g Mean (60 min, 20 μCi per mouse): 1.40 % ID/g
Pancreas % ID/g Mean (60 min, 20 μCi per mouse): 3.30 % ID/g
Salivary gland % ID/g Mean (60 min, 20 μCi per mouse): 5.13 % ID/g
Small intestine % ID/g Mean (60 min, 20 μCi per mouse): 1.57 % ID/g
Spleen % ID/g Mean (60 min, 20 μCi per mouse): 0.74 % ID/g
Stomach % ID/g Mean (60 min, 20 μCi per mouse): 0.68 % ID/g
Tumor % ID/g Mean (60 min, 20 μCi per mouse): 2.27 % ID/g
Bladder % ID/g (60 min, 20 μCi per mouse): 1.90 % ID/g and 1.61 % ID/g
Blood % ID/g (60 min, 20 μCi per mouse): 2.58 % ID/g and 2.21 % ID/g
Brain % ID/g (60 min, 20 μCi per mouse): 0.08 % ID/g and 0.11 % ID/g
Fat % ID/g (60 min, 20 μCi per mouse): 0.53 % ID/g and 0.29 % ID/g
Femur % ID/g (60 min, 20 μCi per mouse): 1.91 % ID/g and 2.29 % ID/g
Heart % ID/g (60 min, 20 μCi per mouse): 1.36 % ID/g and 1.42 % ID/g
Kidney % ID/g (60 min, 20 μCi per mouse): 1.18 % ID/g and 1.23 % ID/g
Large intestine % ID/g (60 min, 20 μCi per mouse): 1.11 % ID/g and 1.21 % ID/g
Liver % ID/g (60 min, 20 μCi per mouse): 1.11 % ID/g and 1.04 % ID/g
Lung % ID/g (60 min, 20 μCi per mouse): 1.60 % ID/g and 1.32 % ID/g
Muscle % ID/g (60 min, 20 μCi per mouse): 1.43 % ID/g and 1.38 % ID/g
Pancreas % ID/g (60 min, 20 μCi per mouse): 3.34 % ID/g and 3.27 % ID/g
Salivery gland % ID/g (60 min, 20 μCi per mouse): 4.35 % ID/g and 5.90 % ID/g
Small intestine % ID/g (60 min, 20 μCi per mouse): 1.56 % ID/g and 1.57 % ID/g
Spleen % ID/g (60 min, 20 μCi per mouse): 0.72 % ID/g and 0.77 % ID/g
Stomach % ID/g (60 min, 20 μCi per mouse): 0.66 % ID/g and 0.69 % ID/g
Tumor % ID/g (60 min, 20 μCi per mouse): 2.44 % ID/g and 2.10 % ID/g

N#CC1CCCN1C(=O)CNC(=O)c1ccnc2ccc(OCCCNC(=O)CCc3cn(CCC(NC(=O)c4ccc([18F])nc4)C(=O)NCCCCC(NC(=O)NC(CC(=O)O)C(=O)O)C(=O)O)nn3)cc12 (stereo not drawn) [[^18F]Sri-07-52]
Bladder % ID/g Mean (30 min, ~100 μCi per mouse): 1.98 % ID/g
Blood % ID/g Mean (30 min, ~100 μCi per mouse): 10.03 % ID/g
Brain % ID/g Mean (30 min, ~100 μCi per mouse): 0.21 % ID/g
Fat % ID/g Mean (30 min, ~100 μCi per mouse): 0.50 % ID/g
Femur % ID/g Mean (30 min, ~100 μCi per mouse): 2.53 % ID/g
Heart % ID/g Mean (30 min, ~100 μCi per mouse): 4.58 % ID/g
Kidney % ID/g Mean (30 min, ~100 μCi per mouse): 2.71 % ID/g
Large intestine % ID/g Mean (30 min, ~100 μCi per mouse): 3.78 % ID/g
Liver % ID/g Mean (30 min, ~100 μCi per mouse): 3.20 % ID/g
Lung % ID/g Mean (30 min, ~100 μCi per mouse): 6.18 % ID/g
Muscle % ID/g Mean (30 min, ~100 μCi per mouse): 2.09 % ID/g
Pancreas % ID/g Mean (30 min, ~100 μCi per mouse): 5.86 % ID/g
Salivary gland % ID/g Mean (30 min, ~100 μCi per mouse): 13.84 % ID/g
Small intestine % ID/g Mean (30 min, ~100 μCi per mouse): 4.36 % ID/g
Spleen % ID/g Mean (30 min, ~100 μCi per mouse): 2.03 % ID/g
Stomach % ID/g Mean (30 min, ~100 μCi per mouse): 1.71 % ID/g
Tumor % ID/g Mean (30 min, ~100 μCi per mouse): 4.99 % ID/g
Bladder % ID/g (30 min, ~100 μCi per mouse): 1.47 % ID/g and 2.50 % ID/g
Blood % ID/g (30 min, ~100 μCi per mouse): 9.03 % ID/g and 11.04 % ID/g
Brain % ID/g (30 min, ~100 μCi per mouse): 0.24 % ID/g and 0.19 % ID/g
Fat % ID/g (30 min, ~100 μCi per mouse): 0.36 % ID/g and 0.64 % ID/g
Femur % ID/g (30 min, ~100 μCi per mouse): 2.15 % ID/g and 2.91 % ID/g
Heart % ID/g (30 min, ~100 μCi per mouse): 4.65 % ID/g and 4.52 % ID/g
Kidney % ID/g (30 min, ~100 μCi per mouse): 2.62 % ID/g and 2.80 % ID/g
Large intestine % ID/g (30 min, ~100 μCi per mouse): 5.82 % ID/g and 1.74 % ID/g
Liver % ID/g (30 min, ~100 μCi per mouse): 3.03 % ID/g and 3.36 % ID/g
Lung % ID/g (30 min, ~100 μCi per mouse): 6.53 % ID/g and 5.82 % ID/g
Muscle % ID/g (30 min, ~100 μCi per mouse): 2.07 % ID/g and 2.12 % ID/g
Pancreas % ID/g (30 min, ~100 μCi per mouse): 6.54 % ID/g and 5.18 % ID/g
Salivery gland % ID/g (30 min, ~100 μCi per mouse): 11.28 % ID/g and 16.41 % ID/g
Small intestine % ID/g (30 min, ~100 μCi per mouse): 4.18 % ID/g and 4.54 % ID/g
Spleen % ID/g (30 min, ~100 μCi per mouse): 2.06 % ID/g and 1.99 % ID/g
Stomach % ID/g (30 min, ~100 μCi per mouse): 1.72 % ID/g and 1.71 % ID/g
Tumor % ID/g (30 min, ~100 μCi per mouse): 5.57 % ID/g and 4.40 % ID/g
Bladder % ID/g Mean (120 min, 20 μCi per mouse): 1.66 % ID/g
Blood % ID/g Mean (120 min, 20 μCi per mouse): 5.44 % ID/g
Brain % ID/g Mean (120 min, 20 μCi per mouse): 0.22 % ID/g
Fat % ID/g Mean (120 min, 20 μCi per mouse): 0.56 % ID/g
Femur % ID/g Mean (120 min, 20 μCi per mouse): 2.17 % ID/g
Heart % ID/g Mean (120 min, 20 μCi per mouse): 3.20 % ID/g
Kidney % ID/g Mean (120 min, 20 μCi per mouse): 2.71 % ID/g
Large intestine % ID/g Mean (120 min, 20 μCi per mouse): 1.08 % ID/g
Liver % ID/g Mean (120 min, 20 μCi per mouse): 2.33 % ID/g
Lung % ID/g Mean (120 min, 20 μCi per mouse): 3.15 % ID/g
Muscle % ID/g Mean (120 min, 20 μCi per mouse): 1.53 % ID/g
Pancreas % ID/g Mean (120 min, 20 μCi per mouse): 3.98 % ID/g
Salivary gland % ID/g Mean (120 min, 20 μCi per mouse): 7.20 % ID/g
Small intestine % ID/g Mean (120 min, 20 μCi per mouse): 2.64 % ID/g
Spleen % ID/g Mean (120 min, 20 μCi per mouse): 1.51 % ID/g
Stomach % ID/g Mean (120 min, 20 μCi per mouse): 1.11 % ID/g
Tumor % ID/g Mean (120 min, 20 μCi per mouse): 1.96 % ID/g
Bladder % ID/g (120 min, 20 μCi per mouse): 0.97 % ID/g and 2.35 % ID/g
Blood % ID/g (120 min, 20 μCi per mouse): 4.70 % ID/g and 6.19 % ID/g
Brain % ID/g (120 min, 20 μCi per mouse): 0.32 % ID/g and 0.13 % ID/g
Fat % ID/g (120 min, 20 μCi per mouse): 0.74 % ID/g and 0.38 % ID/g
Femur % ID/g (120 min, 20 μCi per mouse): 1.99 % ID/g and 2.35 % ID/g
Heart % ID/g (120 min, 20 μCi per mouse): 3.20 % ID/g and 3.21 % ID/g
Kidney % ID/g (120 min, 20 μCi per mouse): 1.66 % ID/g and 3.77 % ID/g
Large intestine % ID/g (120 min, 20 μCi per mouse): 0.85 % ID/g and 1.30 % ID/g
Liver % ID/g (120 min, 20 μCi per mouse): 2.28 % ID/g and 2.43 % ID/g
Lung % ID/g (120 min, 20 μCi per mouse): 2.65 % ID/g and 3.65 % ID/g
Muscle % ID/g (120 min, 20 μCi per mouse): 1.58 % ID/g and 1.47 % ID/g
Pancreas % ID/g (120 min, 20 μCi per mouse): 3.00 % ID/g and 4.96 % ID/g
Salivery gland % ID/g (120 min, 20 μCi per mouse): 6.20 % ID/g and 8.21 % ID/g
Small intestine % ID/g (120 min, 20 μCi per mouse): 2.55 % ID/g and 2.72 % ID/g
Spleen % ID/g (120 min, 20 μCi per mouse): 1.54 % ID/g and 1.49 % ID/g
Stomach % ID/g (120 min, 20 μCi per mouse): 1.00 % ID/g and 1.23 % ID/g
Tumor % ID/g (120 min, 20 μCi per mouse): 1.67 % ID/g and 2.25 % ID/g
